Assay results published in patent publication US6369059B1, “Tetracyclic derivatives, process of preparation and use” (ICOS Corporation, priority 1994, dated 2002).

Structure (SMILES) | melting point
O=C1[C@H]2Cc3c([nH]c4ccccc34)[C@H](c3ccc(Br)s3)N2C(=O)CN1CC1CC1 (relative stereo) [Example 54, Cis-2,3,6,7,12,12a-Hexahydro-6-(5-bromo-2-thienyl)-2-cyclopropylmethyl-pyrazino[2′,1′:6,1]pyrido[3,4-b]indole-1,4-dione] | 190 °C
CCCCN1CC(=O)N2[C@@H](c3ccc(NC(C)=O)cc3)c3[nH]c4ccccc4c3C[C@@H]2C1=O (relative stereo) [Example 99, Cis-2,3,6,7,12,12a-Hexahydro-6-(4-acetamidophenyl)-2-butyl-pyrazino[2′,1′:6,1]pyrido[3,4-b]indole-1,4-dione] | 246 °C
CCN1CC(=O)N2[C@@H](c3ccc(OC)cc3)c3[nH]c4ccccc4c3C[C@@H]2C1=O (relative stereo) [Example 27, Cis-2,3,6,7,12,12a-Hexahydro-2-ethyl-6(4-methoxyphenyl)-pyrazino[2′,1′:6,1]pyrido[3,4-b]indole-1,4-dione] | 245 to 255 °C
Cc1ccc([C@H]2c3[nH]c4ccccc4c3C[C@@H]3C(=O)N(CC4CC4)CC(=O)N23)cc1 (relative stereo) [Example 64, Cis-2,3,6,7,12,12a-Hexahydro-2-cyclopropylmethyl-6-(4-methylphenyl)-pyrazino[2′,1′:6,1]pyrido[3,4-b]indole-1,4-dione] | 194 °C
Cc1ccc2[nH]c3c(c2c1)C[C@@H]1C(=O)N(C)CC(=O)N1[C@H]3c1ccc2c(c1)OCO2 (relative stereo) [Example 96, Cis-2,3,6,7,12,12a-Hexahydro-2,10-dimethyl-6-(3,4-methylenedioxyphenyl)-pyrazino[2′,1′:6,1]pyrido[3,4-b]indole-1,4-dione] | 275 °C
CCCCN1CC(=O)N2[C@@H](c3ccc(OC)cc3)c3[nH]c4ccccc4c3C[C@H]2C1=O (relative stereo) [Example 30, Trans-2,3,6,7,12,12a-Hexahydro-2-butyl-6-(4-methoxyphenyl)-pyrazino[2′,1′:6,1]pyrido[3,4-b]indole-1,4-dione] | 212 to 214 °C
O=C1[C@H]2Cc3c([nH]c4ccccc34)[C@H](c3ccc4c(c3)OCO4)N2C(=O)CN1C1CCCC1 (relative stereo) [Example 21, Cis-2,3,6,7,12,12a-Hexahydro-2-cyclopentyl-6-(3,4-methylenedioxyphenyl)-pyrazino[2′,1′:6,1]pyrido[3,4-b]indole-1,4-dione] | 270 °C
COc1cc([C@H]2c3[nH]c4ccccc4c3C[C@@H]3C(=O)N(C)CC(=O)N23)ccc1O (relative stereo) [Example 70, Cis-2,3,6,7,12,12a-Hexahydro-6-(4-hydroxy-3-methoxyphenyl)-2-methyl-pyrazino[2′,1′:6,1]pyrido[3,4-b]indole-1,4-dione] | 264 to 265 °C
CN1CC(=O)N2[C@@H](c3ccc4c(c3)OCCO4)c3[nH]c4ccccc4c3C[C@@H]2C1=O (relative stereo) [Example 38, Cis-2,3,6,7,12,12a-Hexahydro-6-(3,4-ethylenedioxyphenyl)-2-methyl-pyrazino[2′,1′:6,1]pyrido[3,4-b]indole-1,4-dione] | 303 to 305 °C
CC(C)CN1CC(=O)N2[C@H](c3ccc4c(c3)OCO4)c3[nH]c4ccccc4c3C[C@@H]2C1=O [Example 81, (6R,12aR)-2,3,6,7,12,12a-Hexahydro-2-isobutyl-6-(3,4-methylenedioxyphenyl)-pyrazino[2′,1′:6,1]pyrido[3,4-b]indole-1,4-dione] | 227 to 228 °C
CCc1ccc([C@H]2c3[nH]c4ccccc4c3C[C@@H]3C(=O)N(C(C)C)CC(=O)N23)cc1 (relative stereo) [Example 72, Cis-2,3,6,7,12,12a-Hexahydro-6-(4-ethylphenyl)-2-isopropyl-pyrazino[2′,1′:6,1]pyrido[3,4-b]indole-1,4-dione] | 130 °C
CCCCN1CC(=O)N2[C@@H](c3ccc(C#N)cc3)c3[nH]c4ccccc4c3C[C@@H]2C1=O (relative stereo) [Example 71, Cis-2,3,6,7,12,12a-Hexahydro-2-butyl-6-(4cyanophenyl)-pyrazino[2′,1′:6,1]pyrido[3,4-b]indole-1,4-dione] | 246 °C
CN1CC(=O)N2[C@@H](c3ccc(Cl)c(Cl)c3)c3[nH]c4ccccc4c3C[C@@H]2C1=O (relative stereo) [Example 43, Cis-2,3,6,7,12,12a-Hexahydro-6-(3,4-dichlorophenyl)-2-methyl-pyrazino[2′,1′:6,1]pyrido[3,4-b]indole-1,4-dione] | > 260 °C
CCCCN1CC(=O)N2[C@@H](c3ccc(Cl)cc3)c3[nH]c4ccccc4c3C[C@@H]2C1=O (relative stereo) [Example 42, Cis-2,3,6,7,12,12a-Hexahydro-2-butyl-6-(4-chlorophenyl)-pyrazino[2′,1′:6,1]pyrido[3,4-b]indole-1,4-dione] | 164 to 166 °C
CCCCN1CC(=O)N2[C@@H](c3ccc4c(c3)OCO4)c3[nH]c4ccccc4c3C[C@@H]2C1=O (relative stereo) [Example 18, Cis-2,3,6,7,12,12a-Hexahydro-2-butyl-6-(3,4-methylenedioxyphenyl)-pyrazino[2′,1′:6,1]pyrido[3,4-b]indole-1,4-dione] | 241 to 243 °C
O=C1[C@H]2Cc3c([nH]c4ccccc34)[C@H](c3ccc(Br)s3)N2C(=O)CN1C1CCCC1 (relative stereo) [Example 55, Cis-2,3,6,7,12,12a-Hexahydro-6-(5-bromo-2-thienyl)-2-cyclopentyl-pyrazino[2′,1′:6,1]pyrido[3,4-b]indole-1,4-dione] | 252 °C
COc1ccc([C@@H]2c3[nH]c4ccccc4c3C[C@@H]3C(=O)N(C)CC(=O)N23)cc1 [Example 107, (6R,12aR)-2,3,6,7,12,12a-Hexahydro-6-(4-methoxyphenyl)-2-methyl-pyrazino[2′,1′:6,1]pyrido[3,4-b]indole-1,4-dione] | 285 to 288 °C
Cc1ccc([C@H]2c3[nH]c4ccccc4c3C[C@@H]3C(=O)N(C(C)C)CC(=O)N23)cc1 (relative stereo) [Example 62, Cis-2,3,6,7,12,12a-Hexahydro-2-isopropyl-6-(4-methylphenyl)-pyrazino[2′,1′:6,1]pyrido[3,4-b]indole-1,4-dione] | 170 °C
CN1CC(=O)N2[C@H](c3ccc4c(c3)CCC4)c3[nH]c4ccccc4c3C[C@@H]2C1=O [Example 93, (6R,12aR)-2,3,6,7,12,12a-Hexahydro-6-(5-indanyl)-2-methyl-pyrazino[2′,1′:6,1]pyrido[3,4-b]indole-1,4-dione] | 262 °C
CCc1ccc([C@H]2c3[nH]c4ccccc4c3C[C@@H]3C(=O)N(CC4CC4)CC(=O)N23)cc1 (relative stereo) [Example 73, Cis-2,3,6,7,12,12a-Hexahydro-6-(4-ethylphenyl)-2-cyclopropylmethyl-pyrazino[2′,1′:6,1]pyrido[3,4-b]indole-1,4-dione] | 160 °C
COc1cccc([C@H]2c3[nH]c4ccccc4c3C[C@@H]3C(=O)N(C)CC(=O)N23)c1 (relative stereo) [Example 33, Cis-2,3,6,7,12,12a-Hexahydro-6-(3-methoxyphenyl)-2-methyl-pyrazino[2′,1′:6,1]pyrido[3,4-b]indole-1,4-dione] | 267 to 269 °C
CCc1ccc([C@H]2c3[nH]c4ccccc4c3C[C@@H]3C(=O)N(C)CC(=O)N23)cc1 (relative stereo) [Example 112, Cis-2,3,6,7,12,12a-Hexahydro-6-(4-ethylphenyl)-2-methyl-pyrazino[2′,1′:6,1]pyrido[3,4-b]indole-1,4-dione] | 254 °C
Cc1ccc([C@H]2c3[nH]c4ccccc4c3C[C@@H]3C(=O)N(C)CC(=O)N23)cc1 (relative stereo) [Example 61, Cis-2,3,6,7,12,12a-Hexahydro-2-methyl-6-(4-methylphenyl)-pyrazino[2′,1′:6,1]pyrido[3,4-b]indole-1,4-dione] | > 260 °C
O=C1[C@H]2Cc3c([nH]c4ccccc34)[C@H](c3ccc4c(c3)OCO4)N2C(=O)CN1CC1CC1 (relative stereo) [Example 20, Cis-2,3,6,7,12,12a-Hexahydro-2-cyclopropylmethyl-6-(3,4-methylenedioxyphenyl)-pyrazino[2′,1′:6,1]pyrido[3,4-b]indole-1,4-dione] | 217 to 218 °C
CCCCN1CC(=O)N2[C@@H](c3cccs3)c3[nH]c4ccccc4c3C[C@@H]2C1=O (relative stereo) [Example 51, Cis-2,3,6,7,12,12a-Hexahydro-2-butyl-6-(2-thienyl)-pyrazino[2′,1′:6,1]pyrido[3,4-b]indole-1,4-dione] | 226 °C
CN1CC(=O)N2[C@@H](c3cccnc3)c3[nH]c4ccccc4c3C[C@@H]2C1=O (relative stereo) [Example 77, Cis-2,3,6,7,12,12a-Hexahydro-2-methyl-6-(3-pyridyl)-pyrazino[2′,1′:6,1]pyrido[3,4-b]indole-1,4-dione] | 312 °C
COc1ccc(CN2CC(=O)N3[C@H](c4ccc5c(c4)OCO5)c4[nH]c5ccccc5c4C[C@@H]3C2=O)cc1OC [Example 97, (6R,12aR)-2,3,6,7,12,12a-Hexahydro-2-(3,4-dimethoxybenzyl)-6-(3,4-methylenedioxyphenyl)-pyrazino[2′,1′:6,1]pyrido[3,4-b]indole-1,4-dione] | 224 to 226 °C
CN1CC(=O)N2[C@@H](c3ccc4ccccc4c3)c3[nH]c4ccccc4c3C[C@@H]2C1=O (relative stereo) [Example 50, Cis-2,3,6,7,12,12a-Hexahydro-2-methyl-6-(2-naphthyl)-pyrazino[2′,1′:6,1]pyrido[3,4-b]indole-1,4-dione] | > 260 °C
CCCCN1CC(=O)N2[C@@H](c3ccccc3)c3[nH]c4ccccc4c3C[C@@H]2C1=O (relative stereo) [Example 44, Cis-2,3,6,7,12,12a-Hexahydro-2-butyl-6-phenyl-pyrazino[2′,1′:6,1]pyrido[3,4-b]indole-1,4-dione] | 243 to 245 °C
CN1CC(=O)N2[C@@H](c3ccc(O)cc3)c3[nH]c4ccccc4c3C[C@@H]2C1=O (relative stereo) [Example 68, Cis-2,3,6,7,12,12a-Hexahydro-2-methyl-6-(4-hydroxyphenyl)-pyrazino[2′,1′:6,1]pyrido[3,4-b]indole-1,4-dione] | 179 to 180 °C
